According to the SangsterLogP compilation:

Test: method code SF-HPLC, from DOI: 10.3109/14756366.2013.845817, PMID: 24156741
Conditions: not given

Structure (SMILES) | logP
C#CCn1cc(C(=O)NC(c2ccccc2)C(O)C(=O)NC2CCCC2)c(=O)c2cc(F)c(Cl)nc21 (centres undefined) | 5.82
C#CCn1cc(C(=O)NC(c2ccccc2)C(O)C(=O)NC2CCCCC2)c(=O)c2ccc(Cl)nc21 (centres undefined) | 5.14
C#CCn1cc(C(=O)NC(CC(=O)NC2CCCC2)c2ccccc2)c(=O)c2cc(F)c(Cl)nc21 (centres undefined) | 5.96
C#CCn1cc(C(=O)NC(CC(=O)Nc2ccccc2)c2ccccc2)c(=O)c2ccc(Cl)nc21 (centres undefined) | 5.41

Second part, the compound after the results:

logP | Structure (SMILES)
5.32 | C#CCn1cc(C(=O)NC(c2ccccc2)C(O)C(=O)Nc2ccccn2)c(=O)c2cc(F)c(Cl)nc21 (centres undefined)
4.25 | C#CCn1cc(C(=O)NC(c2ccccc2)C(O)C(=O)Nc2ccccc2)c(=O)c2cccnc21 (centres undefined)
4.02 | C#CCn1cc(C(=O)NC(c2ccccc2)C(O)C(=O)Nc2ccccn2)c(=O)c2cccnc21 (centres undefined)

Test: method code SF, from DOI: 10.1002/jps.2600830714, PMID: 7965679
Conditions: not given

logP | Structure (SMILES)
-1.04 | CO[C@H]1O[C@H](CO)[C@@H](O)[C@H](O)[C@H]1NC(=O)CNC(=O)N(CCCl)N=O
-1.1 | O=NN(CCCl)C(=O)NCC(=O)NC1C(O)OC(CO)C(O)C1O (centres undefined)
0.61 | CC(=O)OC[C@H]1O[C@@H](OC(C)=O)[C@H](NC(=O)CNC(=O)N(CCCl)N=O)[C@@H](OC(C)=O)[C@@H]1OC(C)=O
-0.76 | COC1OC(CO)C(O)C(O)C1NC(=O)C(C)NC(=O)N(CCCl)N=O (centres undefined)
-1.02 | CC(NC(=O)N(CCCl)N=O)C(=O)NC1C(O)OC(CO)C(O)C1O (centres undefined)

Structure (SMILES) | logP
NC(=O)CNC(=O)N(CCCl)N=O | -0.3

Test: method code SF-AS, from DOI: 10.1007/s001289900721, PMID: 9657823
Conditions: not given

Structure (SMILES) | logP
COc1cc(C=O)cc(OC)c1OC | 1.39
CC(C)OC(=O)COc1ccc(C=O)cc1 | 1.88
O=Cc1cc(O)cc(Br)c1 | 2.5
CCOc1ccc(C=O)cc1OC | 1.63
O=Cc1cc(Br)ccc1Br | 3.35

The remaining lines, values ahead:

logP | Structure (SMILES)
1.29 | O=Cc1cccc(O)c1
1.83 | O=Cc1ccc(O)c(Br)c1

Test: not given
Conditions: not given

Structure (SMILES) | logP
N#Cc1cc(-c2ccncc2)cnc1NCCCN1CCOCC1 | 2.43
CCN(CC)CCCNc1ncc(-c2ccncc2)cc1C#N | 2.56

Results, then the compound that gave them:

logP | Structure (SMILES)
2.14 | N#Cc1cc(-c2ccncc2)cnc1N1CCN(CCO)CC1
1.93 | N#Cc1cc(-c2ccncc2)cnc1NCCN
2.51 | N#Cc1cc(-c2ccncc2)cnc1N1CCNCC1
3.15 | Cc1nc(N2CCNCC2)c(C#N)cc1-c1ccccc1
2.96 | Cc1nc(N2CCNCC2)c(C#N)cc1-c1ccncc1

Test: method code SF-AS, from DOI: 10.1016/0021-9673(91)80064-n
Conditions: not given

logP | Structure (SMILES)
0 | C=CC(=O)NCCCN(C)C
-0.21 | C=CC(=O)NCCc1c[nH]cn1
0.54 | C=CC(=O)NCCCN1CCSCC1
-0.6 | C=CC(=O)NCCCN(CCO)CCO
-0.25 | C=CC(=O)NCCN(C)C
0.72 | C=CC(=O)NCCCN(CC)CC

Test: method code SF-HPLC, from DOI: 10.1248/cpb.43.1894
Conditions: not given

Structure (SMILES) | logP
S=C1CCCC1=C1SCCS1 | 3.12
CSC1=CCCCC1 | 3.3
CSC(=S)C(C)(C)C(C)=O | 2.8
CSC(=S)C1=C(SC)CCCC1 | 3.81

Second part, the compound after the results:

logP | Structure (SMILES)
2.59 | CC(C)C(=O)c1ccccc1
3.74 | CSC(=S)c1ccccc1SC
3.9 | CSC(=S)C(C)(C)C(=O)c1ccccc1

Test: method code SF, from DOI: 10.1016/0360-3016(86)90226-9, PMID: 3744928
Conditions: pH 7.4

logD | Structure (SMILES)
-0.38 | COC(=O)Cn1cnc([N+](=O)[O-])n1
-1.24 | O=C(Cn1cnc([N+](=O)[O-])n1)NCCCO
0.05 | O=[N+]([O-])c1ncn(CC(O)CCl)n1 (centres undefined)
-0.07 | CCOCC(O)Cn1cnc([N+](=O)[O-])n1 (centres undefined)
-1.54 | O=[N+]([O-])c1ncn([C@H]2O[C@H](CO)[C@@H](O)[C@H]2O)n1

Structure (SMILES) | logD
O=[N+]([O-])c1nccn1CC(O)CN1CC1 (centres undefined) | -0.66

Test: method code SF-AS, from DOI: 10.2307/3577276, PMID: 2913608
Conditions: not given

Structure (SMILES) | logP
O=[N+]([O-])c1nc[nH]c1S(=O)(=O)NC1CCCCC1 | 1.38
CCNS(=O)(=O)c1[nH]cnc1[N+](=O)[O-] | -0.37
Cn1cnc([N+](=O)[O-])c1S(N)(=O)=O | -0.74

The remaining lines, values ahead:

logP | Structure (SMILES)
2.28 | CC(C)(C)c1ccc(NS(=O)(=O)c2[nH]cnc2[N+](=O)[O-])cc1
0.2 | CC(=O)Nc1cccc(NS(=O)(=O)c2[nH]cnc2[N+](=O)[O-])c1
-0.06 | CC(=O)Nc1ccccc1NS(=O)(=O)c1[nH]cnc1[N+](=O)[O-]

Test: not given
Conditions: not given
Remark: another data set of the same source

Structure (SMILES) | logP
CC(C)CN[C@H]1CCS(=O)(=O)c2sc(S(N)(=O)=O)cc21 | -0.03
NS(=O)(=O)c1ccc([N+](=O)[O-])cc1[N+](=O)[O-] | 0.3

Second part, the compound after the results:

logP | Structure (SMILES)
1.83 | CN(C)c1cccc2c(S(N)(=O)=O)cccc12
3.27 | NS(=O)(=O)c1cc(C(=O)O)cc(N2CCCC2)c1Oc1ccccc1
0.58 | NS(=O)(=O)c1ccc([N+](=O)[O-])cc1
0.4 | NS(=O)(=O)c1ccccc1[N+](=O)[O-]
1.65 | NS(=O)(=O)c1cc(Cl)ccc1Cl

Test: method code SF-AS, from DOI: 10.1007/bf02877675, PMID: 411721
Conditions: not given

Structure (SMILES) | logP
N#CC(C#N)=NNc1ccc([N+](=O)[O-])cc1 | 2.34
N#CC(C#N)=NNc1ccc(Cl)c(Cl)c1 | 3.42
N#CC(C#N)=NNc1ccc(Cl)cc1 | 3.08
N#CC(C#N)=NNc1ccc(Br)cc1 | 3.38
CC(=O)c1ccc(NN=C(C#N)C#N)cc1 | 2.17
N#CC(C#N)=NNc1ccccc1Cl | 2.65

Test: method code SF-HPLC, from DOI: 10.1016/s0021-9673(01)88640-4
Conditions: not given

Structure (SMILES) | logP
N#CN=[N+]([O-])c1cc[n+]([O-])cc1 | -0.41
N#CN=[N+]([O-])c1ccccn1 | 0.53
N#CN=[N+]([O-])c1cccc2ccccc12 | 3.17
N#CN=[N+]([O-])c1ncccn1 | -0.31
N#CN=[N+]([O-])c1ccnc2ccccc12 | 2.07
N#CN=[N+]([O-])c1cc[n+]([O-])c2ccccc12 | 1.12

Test: not given
Conditions: not given
Remark: another data set of the same source

logP | Structure (SMILES)
-0.88 | Cc1cc[n+]([O-])cc1
-0.91 | N#Cc1cc[n+]([O-])cc1
-0.53 | CCOc1cc[n+]([O-])cc1
0.41 | [O-][n+]1cccc2ccccc21
-0.44 | [O-][n+]1ccc(Cl)cc1
-0.93 | CC(=O)c1cc[n+]([O-])cc1

Test: method code SF-GLC, from DOI: 10.1016/0378-4274(82)90116-3, PMID: 7090003
Conditions: not given

logP | Structure (SMILES)
0.47 | C=C(C)C(=O)OCCO
2.66 | C=C(C)C(=O)OCC(C)C
0.97 | C=C(C)C(=O)OCC(C)O (centres undefined)
2.54 | C=C(C)C(=O)OC(C)(C)C

Structure (SMILES) | logP
C=CC(=O)OCCO | -0.21
C=CC(=O)OCC(C)C | 2.22

Test: method code SF, from DOI: 10.1016/0360-3016(89)90912-7, PMID: 2703384
Conditions: pH 7.4

logD | Structure (SMILES)
0.18 | COCC(F)Cn1ccnc1[N+](=O)[O-] (centres undefined)
0.04 | O=[N+]([O-])c1nccn1CC(F)(F)CO
-0.21 | O=[N+]([O-])c1cn(CC(F)(F)CO)cn1
-0.46 | O=C(Cn1cnc([N+](=O)[O-])c1)NCCO
-0.15 | COCCNC(=O)C(F)(F)Cn1ccnc1[N+](=O)[O-]

Structure (SMILES) | logD
O=[N+]([O-])c1cn(CC(O)CF)cn1 (centres undefined) | -0.44

Test: not given
Conditions: not given
Remark: another data set of the same source

Structure (SMILES) | logP
c1ccoc1 | 1.31
CCc1cnccn1 | 0.79
c1cncnc1 | -0.34

Continued, values first:

logP | Structure (SMILES)
2.61 | Cc1c[nH]c2ccccc12
1.05 | CNC(=O)c1ccccc1
1.57 | CCOC(=O)c1ccco1

Test: method code SF-AS, from DOI: 10.1021/jm00223a031, PMID: 810572
Conditions: not given

logP | Structure (SMILES)
2.71 | Cc1ccnc2c(O)ccc(C)c12
0.62 | Oc1ccnc2c(O)cccc12
2.37 | Cc1ccc(O)c2ncccc12
1.59 | Cc1ccnc2c(O)ccc(O)c12
2.75 | COc1ccc(O)c2nccc(C)c12
-0.11 | Nc1ccc(O)c2ncccc12

Test: method code SF-HPLC, from DOI: 10.1002/ps.2780220406
Conditions: not given

logP | Structure (SMILES)
1.84 | Clc1ccc(Cn2cncn2)cc1
1.1 | COc1ccc(Cn2cncn2)cc1
2.81 | CCCCc1ccc(Cn2cncn2)cc1
1.74 | FC(F)(F)c1cccc(Cn2cncn2)c1
1.1 | Fc1ccc(Cn2cncn2)cc1
0.92 | c1ccc(Cn2cncn2)cc1

Test: not given
Conditions: not given
Remark: another data set of the same source

Structure (SMILES) | logP
CCOP(=S)(OCC)SCCSCC | 3.84
Cc1ccc(S(=O)(=O)Oc2c(C(=O)c3ccc(Cl)cc3Cl)c(C)nn2C)cc1 | 3.9
CCCOP(=O)(OCCC)Oc1ccc(SC)cc1 | 3.44
COP1(=S)OCc2ccccc2O1 (centres undefined) | 2.12
CCOC(=O)C(SP(=S)(OC)OC)c1ccccc1 (centres undefined) | 3.32
CCN(OC(=O)c1ccccc1)C(=O)c1c(OC)ccc(Cl)c1OC | 3.73
CCCOP(=S)(OCCC)SCC(=O)N1CCCCC1C (centres undefined) | 4.04
